Assays:
Test in all cases: HMF sulfoconjugation assay
Assay type in all cases: biochemical
hSULT1A1 = target: T1, hSULT1A1 (Homo sapiens, UniProt P50225)
T1 construct: made in house; host or cells: Salmonella typhimurium TA1538 (cytosolic fraction, not purified)
In short: (§1)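 HMF at different concentrations was sulfated by SULT-expressing S. typhimurium cytosol with 50 µM PAPS. Incubation ran 30 min at 37 °C under linear conditions, and SMF was quantified by UPLC-MS/MS.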

hSULT1C2 = target: T2, hSULT1C2 (Homo sapiens, UniProt O75897)
T2 construct: made in house; host or cells: Salmonella typhimurium TA1538 (cytosolic fraction, not purified)
T2 sequence (O75897 whole entry): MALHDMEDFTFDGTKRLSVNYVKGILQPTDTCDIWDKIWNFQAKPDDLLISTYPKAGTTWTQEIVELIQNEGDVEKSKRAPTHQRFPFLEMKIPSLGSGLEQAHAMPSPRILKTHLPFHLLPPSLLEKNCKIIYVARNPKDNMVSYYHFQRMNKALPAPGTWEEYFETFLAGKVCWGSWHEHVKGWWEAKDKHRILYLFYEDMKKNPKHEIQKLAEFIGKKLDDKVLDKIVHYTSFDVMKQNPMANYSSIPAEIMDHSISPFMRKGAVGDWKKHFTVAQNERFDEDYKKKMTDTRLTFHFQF
In short: as §1

rSult2a1 = target: T3, rSult2a1 (Rattus norvegicus, UniProt P15709)
T3 construct: made in house; host or cells: Salmonella typhimurium TA1538 (cytosolic fraction, enzyme not purified)
T3 sequence (P15709 1-284): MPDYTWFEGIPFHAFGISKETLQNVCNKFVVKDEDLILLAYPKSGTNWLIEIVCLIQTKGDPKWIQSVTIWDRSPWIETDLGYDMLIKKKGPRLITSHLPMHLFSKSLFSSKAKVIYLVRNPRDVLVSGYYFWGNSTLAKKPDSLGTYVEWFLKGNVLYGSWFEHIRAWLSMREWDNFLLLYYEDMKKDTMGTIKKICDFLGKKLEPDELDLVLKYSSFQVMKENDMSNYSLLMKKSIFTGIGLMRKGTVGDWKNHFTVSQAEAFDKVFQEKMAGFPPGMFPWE
In short: as §1

mSult2a2 = target: T4, mSult2a2 (Mus musculus, UniProt P50236)
T4 construct: made in house; host or cells: Salmonella typhimurium TA1538 (cytosolic fraction, enzyme not purified)
T4 sequence (P50236 1-285): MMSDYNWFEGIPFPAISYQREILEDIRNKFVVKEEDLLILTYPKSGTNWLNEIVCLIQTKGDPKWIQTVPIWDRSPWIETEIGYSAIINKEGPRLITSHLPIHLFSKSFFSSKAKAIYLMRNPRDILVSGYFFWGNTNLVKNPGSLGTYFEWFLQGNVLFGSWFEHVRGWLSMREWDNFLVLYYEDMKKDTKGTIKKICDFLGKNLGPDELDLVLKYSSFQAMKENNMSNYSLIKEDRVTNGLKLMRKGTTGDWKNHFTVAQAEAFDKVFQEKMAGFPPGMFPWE
In short: as §1

hSULT1C1 = target: T5, hSULT1C1 (Homo sapiens, UniProt O00338)
T5 construct: made in house; host or cells: Salmonella typhimurium TA1538 (cytosolic fraction, not purified)
T5 sequence (O00338 whole entry): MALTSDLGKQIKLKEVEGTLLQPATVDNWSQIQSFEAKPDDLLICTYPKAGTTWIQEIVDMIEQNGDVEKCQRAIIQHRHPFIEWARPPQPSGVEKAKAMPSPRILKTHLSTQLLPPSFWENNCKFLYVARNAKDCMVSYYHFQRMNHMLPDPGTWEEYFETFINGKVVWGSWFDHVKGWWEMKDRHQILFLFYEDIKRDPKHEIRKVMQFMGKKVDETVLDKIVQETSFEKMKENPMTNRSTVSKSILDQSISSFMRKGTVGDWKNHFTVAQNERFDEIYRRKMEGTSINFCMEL
In short: as §1

rSult1c1 = target: T6, rSult1c1 (Rattus norvegicus, UniProt P50237)
T6 construct: made in house; host or cells: Salmonella typhimurium TA1538 (cytosolic fraction, enzyme not purified)
T6 sequence (P50237 whole entry): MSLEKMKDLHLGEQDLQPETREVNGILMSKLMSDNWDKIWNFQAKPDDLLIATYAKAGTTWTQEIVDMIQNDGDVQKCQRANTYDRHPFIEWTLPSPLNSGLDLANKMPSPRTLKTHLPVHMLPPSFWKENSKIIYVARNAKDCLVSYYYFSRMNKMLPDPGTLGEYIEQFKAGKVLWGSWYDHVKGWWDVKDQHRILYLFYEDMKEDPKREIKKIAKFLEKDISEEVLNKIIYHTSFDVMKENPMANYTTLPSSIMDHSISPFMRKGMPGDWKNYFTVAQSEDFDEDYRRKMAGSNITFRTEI
In short: as §1

hSULT1C3 = target: T7, hSULT1C3 (Homo sapiens, UniProt Q6IMI6)
T7 construct: made in house; host or cells: Salmonella typhimurium TA1538 (cytosolic fraction, not purified)
T7 sequence (Q6IMI6 whole entry): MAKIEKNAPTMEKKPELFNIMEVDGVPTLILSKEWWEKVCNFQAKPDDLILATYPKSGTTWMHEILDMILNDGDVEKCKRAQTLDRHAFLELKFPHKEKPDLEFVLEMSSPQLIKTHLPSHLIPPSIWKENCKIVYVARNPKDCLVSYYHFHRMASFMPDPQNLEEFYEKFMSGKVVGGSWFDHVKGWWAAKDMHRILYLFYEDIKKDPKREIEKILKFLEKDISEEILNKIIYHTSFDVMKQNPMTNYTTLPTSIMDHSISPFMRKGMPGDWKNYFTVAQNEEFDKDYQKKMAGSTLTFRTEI
In short: as §1

[1] = HMF sulfoconjugation, Michaelis-Menten fit

T1 sequence (P50225 whole entry): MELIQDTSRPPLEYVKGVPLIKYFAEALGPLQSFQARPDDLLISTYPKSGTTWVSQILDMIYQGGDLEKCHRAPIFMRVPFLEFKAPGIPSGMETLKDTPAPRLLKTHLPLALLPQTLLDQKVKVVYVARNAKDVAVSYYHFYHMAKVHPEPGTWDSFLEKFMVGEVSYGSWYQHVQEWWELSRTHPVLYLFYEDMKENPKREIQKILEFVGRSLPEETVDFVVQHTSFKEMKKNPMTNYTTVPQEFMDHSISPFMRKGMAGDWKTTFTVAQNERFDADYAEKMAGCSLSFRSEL

How did the “ratio of HMF sulfoconjugation efficiency, hSULT1A1 vs hSULT1C2” value (hSULT1A1) turn out when O=Cc1ccc(CO)o1 [HMF, 5-Hydroxymethylfurfural] was run?
The value was “about 19 times”.

And the Rate of sulfoconjugation (hSULT1A1; 0.1 mM HMF)?
Its Rate of sulfoconjugation is 20.4 ± 2.8 pmol/mg/min.

And the Rate of sulfoconjugation (hSULT1A1; 1 mM HMF)?
The Rate of sulfoconjugation was 171 ± 18 pmol/mg/min.

What about the Rate of sulfoconjugation (hSULT1A1; 10 mM HMF) of the same molecule?
The Rate of sulfoconjugation was 641 ± 100 pmol/mg/min.

And the Rate of sulfoconjugation (hSULT1A1; 100 mM HMF)?
The Rate of sulfoconjugation was 699 ± 170 pmol/mg/min.

And the “K M” value (hSULT1A1; [1])?
Its value is 3.2 ± 0.4 mM.

What about the Rate of sulfoconjugation (hSULT1C2; 0.1 mM HMF) of the same molecule?
The Rate of sulfoconjugation was 1.1 ± 0.3 pmol/mg/min.

What about the Rate of sulfoconjugation (hSULT1C2; 1 mM HMF) of the same molecule?
The Rate of sulfoconjugation was 14.0 ± 1.8 pmol/mg/min.

What about the Rate of sulfoconjugation (hSULT1C2; 10 mM HMF) of the same molecule?
The Rate of sulfoconjugation was 115 ± 14 pmol/mg/min.

What about the Rate of sulfoconjugation (hSULT1C2; 100 mM HMF) of the same molecule?
Its Rate of sulfoconjugation is 285 ± 71 pmol/mg/min.

And the “K M” value (hSULT1C2; [1])?
Its value is 18.8 ± 5.4 mM.

What about the Rate of sulfoconjugation (rSult2a1; 0.1 mM HMF) of the same molecule?
The Rate of sulfoconjugation was under 0.5 pmol/mg/min.

What about the Rate of sulfoconjugation (rSult2a1; 1 mM HMF) of the same molecule?
Its Rate of sulfoconjugation is 1.8 ± 0.1 pmol/mg/min.

And the Rate of sulfoconjugation (rSult2a1; 10 mM HMF)?
Its Rate of sulfoconjugation is 17.2 ± 0.6 pmol/mg/min.

And the Rate of sulfoconjugation (rSult2a1; 100 mM HMF)?
The Rate of sulfoconjugation was 58.9 ± 4.6 pmol/mg/min.

What about the Rate of sulfoconjugation (mSult2a2; 0.1 mM HMF) of the same molecule?
Its Rate of sulfoconjugation is under 0.5 pmol/mg/min.

What about the Rate of sulfoconjugation (mSult2a2; 1 mM HMF) of the same molecule?
The Rate of sulfoconjugation was 4.4 ± 0.8 pmol/mg/min.

And the Rate of sulfoconjugation (mSult2a2; 10 mM HMF)?
The Rate of sulfoconjugation was 32.4 ± 3.2 pmol/mg/min.

And the Rate of sulfoconjugation (mSult2a2; 100 mM HMF)?
The Rate of sulfoconjugation was 77.5 ± 11.7 pmol/mg/min.

What about the Rate of sulfoconjugation (hSULT1C1; 0.1 mM HMF) of the same molecule?
The Rate of sulfoconjugation was under 0.5 pmol/mg/min.

What about the Rate of sulfoconjugation (hSULT1C1; 1 mM HMF) of the same molecule?
Its Rate of sulfoconjugation is under 0.5 pmol/mg/min.

What about the Rate of sulfoconjugation (hSULT1C1; 10 mM HMF) of the same molecule?
The Rate of sulfoconjugation was 4.7 ± 0.3 pmol/mg/min.

What about the Rate of sulfoconjugation (hSULT1C1; 100 mM HMF) of the same molecule?
The Rate of sulfoconjugation was 11.0 ± 1.4 pmol/mg/min.

What about the Rate of sulfoconjugation (rSult1c1; 0.1 mM HMF) of the same molecule?
Its Rate of sulfoconjugation is 2.1 ± 1.3 pmol/mg/min.

What about the Rate of sulfoconjugation (rSult1c1; 1 mM HMF) of the same molecule?
The Rate of sulfoconjugation was 29.1 ± 9.0 pmol/mg/min.

And the Rate of sulfoconjugation (rSult1c1; 10 mM HMF)?
Its Rate of sulfoconjugation is 120 ± 39 pmol/mg/min.

What about the Rate of sulfoconjugation (rSult1c1; 100 mM HMF) of the same molecule?
Its Rate of sulfoconjugation is 47.5 ± 27.3 pmol/mg/min.

What about the “K M” value (rSult1c1; HMF sulfoconjugation, extended Michaelis-Menten equation with substrate inhibition) of the same molecule?
The value was 18.4 ± 4.7 mM.

What about the Rate of sulfoconjugation (hSULT1C3; 0.1 mM HMF) of the same molecule?
The Rate of sulfoconjugation was under 0.5 pmol/mg/min.

What about the Rate of sulfoconjugation (hSULT1C3; 1 mM HMF) of the same molecule?
Its Rate of sulfoconjugation is 1.0 ± 0.1 pmol/mg/min.

And the Rate of sulfoconjugation (hSULT1C3; 10 mM HMF)?
Its Rate of sulfoconjugation is 7.2 ± 0.9 pmol/mg/min.

And the Rate of sulfoconjugation (hSULT1C3; 100 mM HMF)?
Its Rate of sulfoconjugation is 3.6 ± 0.2 pmol/mg/min.

Source: PMC4710668, “Bioactivation of food genotoxicants 5-hydroxymethylfurfural and furfuryl alcohol by sulfotransferases from human, mouse and rat: a comparative study” (Archives of Toxicology, 2014)
